Here are results for 2 compounds from EP3641564B1, “TASTE MODULATING FLAVORING SUBSTANCES” (Symrise AG, priority 2017, dated 2018).

A short description of assay [1]: Sensory panel rating of bitterness reduction of a caffeine solution. In kind it is in vivo. Conditions: for Bitterness rating with test substance (0-100 scale): expert panel mean, rating 0 [nicht bitter] to 100 [extrem bitter]; for % Reduktion des Bitter-Eindrucks (Signifikanz): 500 ppm Coffein, calculated from panel means versus solution without test substance. The source says: (§1) Um die Reduzierung (d.h. die Maskierung oder Verminderung) des Bitter-Eindrucks in einer Probe zu quantifizieren, wurde die Bitterkeit einer Lösung enthaltend 500 ppm Coffein oder 300 ppm Theobromin oder 100 ppm Naringin von einer Expertengruppe jeweils mit einer Probe verglichen, die 500 ppm Coffein oder 300 ppm Theobromin oder 100 ppm Naringin und zusätzlich die jeweils angegebene Menge einer (hinsichtlich der Fähigkeit zur Bitter-Reduzierung) zu beurteilenden Substanz enthielt (Einstufung: 0 [nicht bitter] bis 100 [extrem bitter]). Für die Auswertung, d.h. die Berechnung der Reduktion (in %) des Bittereindrucks wurden jeweils die Durchschnittswerte der Einschätzungen der Expertengruppe verwendet. Die Ergebnisse sind in Tabelle 1 zusammengefasst: Tabelle 1: Bitterreduzierung einer Bitterstofflösung

Assay [2] can be described thus: Sensory panel rating of bitterness reduction of a theobromine solution. In kind it is in vivo.
Excerpt: as §1

[3] abbreviates: 10 ppm test substance in 500 ppm Coffein solution.

As to `COc1ccc(C(O)Cc2cccc(O)c2C(=O)O)cc1O` (single isomer, unassigned) [Substanz (3), 2-Hydroxy-6-[2-hydroxy-2-(3-hydroxy-4-methoxyphenyl)ethyl]benzoesäure], the “Bitterness rating with test substance (0-100 scale)” value in assay [1] (setting [3]) is recorded as 41.25 + 21.83; in assay [1] (25 ppm test substance in 500 ppm Coffein solution), 38.85 + 19.19. Moreover, the “% Reduktion des Bitter-Eindrucks (Signifikanz)” value is listed as 14.0 % (p = 0.29) in assay [1] (10 ppm test substance); 26.5 % (p < 0.05) in assay [1] (25 ppm test substance); 16.5 % (p = 0.21) in assay [2] (25 ppm test substance, 300 ppm Theobromin, calculated from panel means versus solution without test substance). Moreover, the “Bitter-Eindruck (0-100) mit Testsubstanz” value in assay [2] (25 ppm test substance in 300 ppm Theobromin solution, expert panel mean, rating 0 [nicht bitter] to 100 [extrem bitter]) worked out at 39.76 ± 20.91.

For the compound `COc1ccc(/C=C/c2cccc(O)c2C(=O)O)cc1O` [Substanz (6), 2-Hydroxy-6-[(E)-2-(3-hydroxy-4-methoxyphenyl)vinyl]benzoesäure], the “Bitterness rating with test substance (0-100 scale)” value in assay [1] (setting [3]) amounted to 37.50 ± 18.84. In assay [1] (10 ppm test substance), the “% Reduktion des Bitter-Eindrucks (Signifikanz)” value was 18.3 % (p = 0.15).
